From US10188634B2, “3-(3H-imidazo[4,5-C]pyridin-2-yl)-1 H-pyrazolo[4,3-B]pyridines and therapeutic uses thereof” (Samumed, LLC, priority 2015, dated 2019)

What was measured:
Format in all cases: cell-based
IL-6 in THP-1 cells = test: Inhibition of IL-6 in LPS-stimulated THP-1 human monocyte cells (HTRF); conditions: 500 ng/mL LPS, 22 hours, IL-6 HTRF
Experimental: Human Monocyte Cell Culture: Human monocyte cell line (THP-1 cells; Catalog # TIB-202, ATCC, Manassas, Va.) were cultured in Roswell Park Memorial Institute (RPMI) 1640 Medium (Catalog #21870-100, Buffalo, N.Y.) with 1% L-glutamine, 1% HEPES, 1% Sodium Pyruvate, 2% Sodium Bicarbonate supplemented with 100 units/mL penicillin, 50 μg/mL streptomycin, 2-mercaptoethanol (0.05 mM) [basal medium] and 10% fetal bovine serum (Catalog #16140089, Life Technologies, Carlsbad, Calif.) at 37° C. and 5% CO2.
Compound Screening: THP-1 cells were cultured in basal media with 1% FBS for 24 hours before the start of the assay. Each compound was dissolved in DMSO as a 10 mM stock and used to prepare compound source plates. Serial dilution (1:3, 10-point dose-response curves starting from 10 μM) and compound transfer was performed using the ECHO 550 (Labcyte, Sunnyvale, Calif.) into 384-well white low volume assay plates (Greiner Bio-One) with appropriate DMSO backfill for a final DMSO concentration of 0.1%. THP-1 cells were plated at 5000 cells/well in the 384-well plates and incubated at 37° C. for 2 h. 500 ng/mL of LPS was added after 2 hours and cells were incubated for another 22 hours at 37° C. Plates were spun in a centrifuge for 1 minute at […] and a mixture of anti-IL6 XL665, and anti-IL6 Cryptate diluted in reconstitution buffer (Cisbio Inc.) was added to each well. Following incubation for 3 hrs at room temperature, Homogeneous Time-Resolved Fluorescence (HTRF) was measured using the Envision (Perkin Elmer) at 665 nm and […]. The ratio of fluorescence at 665 nm to 620 nm was used as a readout for IL6 quantification. All samples were processed in duplicate. Readings were normalized to DMSO treated cells and normalized activities were utilized for EC50 calculations using the dose-response log (inhibitor) vs. response -variable slope (four parameters) nonlinear regression feature available in GraphPad Prism 5.0 (or Dotmatics). For EC50 of >10 μM, the percent inhibition at 10 μM is provided.

SW480 colon cancer cells = test: Cell viability assay (CellTiter-Blue) in SW480 colon cancer cells; conditions: Homo sapiens, 96 h; for EC50: four days incubation, CellTiter-Blue cell viability; for inhibition at 10 µM: four days, CellTiter-Blue, read-out: percent inhibition at 10 μM (given for EC50 of >10 μM)
Experimental: Representative compounds were screened using the following assay procedure to assess the effect on cell viability as described below.
Each compound was dissolved in DMSO as a 10 mM stock and used to prepare compound source plates. Serial dilution (1:3, 8-point dose-response curves from 10 μM to 0.004 μM) and compound transfer was performed using the ECHO 550 (Labcyte, Sunnyvale, Calif.) into 96-well clear bottom, black-walled plates (Corning-Costar).
Approximately 2×10^3 SW480 colon cancer cells were seeded into each well and allowed to incubate in the presence or absence of compound for four days at 37° C./5% CO2. Eight replicates of DMSO-treated cells served as controls and cells treated with compound were performed in duplicate.
After incubation, 20 μL of CellTiter-Blue (Promega) was added to each well allowed to incubate for approximately 3 hours. This reagent was a buffered solution which contains resazurin, metabolically active cells were able to reduce rezarurin (blue) into resorufin (pink) which was highly fluorescent. This measured fluorescence was used as a readout for cell viability.
After incubation, the plates were read at Ex 560 nm Em 590 nm (Cytation 3, BioTek). Dose-response curves were generated and EC50 concentration values were calculated using non-linear regression curve fit in the GraphPad Prism (San Diego, Calif.) or Dotmatics' Studies Software (Bishops Stortford, UK). For EC50 of >10 μM, the percent inhibition at 10 μM is provided.

[1] = test system: LL29 cells (primary human fibroblasts derived from IPF patients) treated with TGF-β1, α-smooth muscle actin; test: Inhibition of the fibrotic process: αSMA staining in TGF-β1 treated primary human fibroblasts from IPF patients (LL29 cells); conditions: Fibroblast, 96 h; for EC50: LL29 cells treated with TGF-β1 (20 ng/mL), 4 days
Excerpt: Representative compounds were screened using primary human fibroblasts (derived from IPF patients) treated with TGF-β1 to determine their ability to inhibit the fibrotic process.
Human Fibroblast Cell Culture: Primary human fibroblasts derived from IPF patients (LL29 cells) [^1Xiaoqiu Liu, et.al., “Fibrotic Lung Fibroblasts Show Blunted Inhibition by cAMP Due to Deficient cAMP Response Element-Binding Protein Phosphorylation”, Journal of Pharmacology and Experimental Therapeutics (2005), 315(2), 678-687; ^2Watts, K. L., et.al., “RhoA signaling modulates cyclin D1 expression in human lung fibroblasts; implications for idiopathic pulmonary fibrosis”, Respiratory Research (2006), 7(1), 88] were obtained from American Type Culture Collection (ATCC) and expanded in F12 medium supplemented with 15% Fetal Bovine Serum and Penicillin/Streptomycin.
Compound Screening: Each compound was dissolved in DMSO as a 10 mM stock and used to prepare compound source plates. […] LL29 cells are plated at 1,500 cells/well in 80 μL/well F12 medium supplemented with 1% Fetal Bovine Serum. One hour after addition of the cells, TGF-β1 (Peprotech; 20 ng/mL) was added to the plates to induce fibrosis (ref. 1 and 2 above). Wells treated with TGF-β1 and containing DMSO were used as controls. Cells were incubated at 37° C. and 5% CO2 for 4 days. Following incubation for 4 days, SYTOX green nucleic acid stain (Life Technologies [Thermo Fisher Scientific]) was added to the wells at a final concentration of 1 μM and incubated at room temperature for 30 min. Cells were then fixed using 4% formaldehyde (Electron Microscopy Sciences), washed 3 times with PBS followed by blocking and permeabilization using 3% Bovine Serum Albumin (BSA; Sigma) and 0.3% Triton X-100 (Sigma) in PBS. Cells were then stained with antibody specific to α-smooth muscle actin (αSMA; Abcam) (ref. 1 and 2 above) in 3% Bovine Serum Albumin (BSA; Sigma) and 0.3% Triton X-100 (Sigma) in PBS, and incubated overnight at 4° C. Cells were then washed 3 times with PBS, followed by incubation with Alexa Flor-647 conjugated secondary antibody (Life Technologies [Thermo Fisher Scientific]) and DAPI at room temperature for 1 hour. Cells were then washed 3 times with PBS and plates were sealed for imaging. αSMA staining was imaged by excitation at 630 nm and emission at 665 nm and quantified using the Compartmental Analysis program on the CellInsight CX5 (Thermo Scientific). Dead or apoptotic cells were excluded from analysis based on positive SYTOX green staining. % of total cells positive for αSMA were counted in each well and normalized to the average of 11 wells treated with TGF-β1 on the same plate using Dotmatics' Studies Software. The normalized averages (fold change over untreated) of 3 replicate wells for each compound concentration were used to create dose-responses curves and EC50 values were calculated using non-linear regression curve fit in the Dotmatics' Studies Software. For EC50 of >10 μM, the percent inhibition at 10 μM is provided.

[2] = test system: Wnt activity (Sp5-Luc reporter, human Sp5 promoter with eight TCF/LEF binding sites) in SW480 colon carcinoma cells; test: Screening assay for Wnt activity: Sp5-Luc reporter gene assay in SW480 cells; conditions: 10-point dose-response starting from 10 μM, overnight incubation
Excerpt: The screening assay for Wnt activity is described as follows. Reporter cell lines can be generated by stably transducing cancer cell lines (e.g., colon cancer) or primary cells (e.g., IEC-6 intestinal cells) with a lentiviral construct that includes a Wnt-responsive promoter driving expression of the firefly luciferase gene.
SW480 colon carcinoma cells were transduced with a lentiviral vector expressing luciferase with a human Sp5 promoter consisting of a sequence of eight TCF/LEF binding sites. SW480 cells stably expressing the Sp5-Luc reporter gene and a hygromycin resistance gene were selected by treatment with 150 μg/mL of hygromycin for 7 days. These stably transduced SW480 cells were expanded in cell culture and used for all further screening activities. Each compound was dissolved in DMSO as a 10 mM stock and used to prepare compound source plates. Serial dilution (1:3, 10-point dose-response curves starting from 10 μM) and compound transfer was performed using the ECHO 550 (Labcyte, Sunnyvale, Calif.) into 384-well white solid bottom assay plates (Greiner Bio-One) with appropriate DMSO backfill for a final DMSO concentration of 0.1%. For Sp5-Luc reporter gene assays, the cells were plated at 4,000 cells/well in 384-well plates with medium containing 1% fetal bovine serum and incubated overnight at 37° C. and 5% CO2. Following incubation, 20 μl of BrightGlo luminescence reagent (Promega) was added to each well of the 384-well assay plates. The plates were placed on an orbital shaker for 2 min and then luminescence was quantified using the Envision (Perkin Elmer) plate reader. Readings were normalized to DMSO only treated cells, and normalized activities were utilized for EC50 calculations using the dose-response log (inhibitor) vs. response -variable slope (four parameters) nonlinear regression feature available in GraphPad Prism 5.0 (or Dotmatics). For EC50 of >10 μM, the percent inhibition at 10 μM is provided.

Q: Which EC50 (IL-6 in THP-1 cells) does the source give for CN1CCN(c2cncc3[nH]c(-c4n[nH]c5ccc(-c6cncc(OCc7ccccc7)c6)nc45)nc23)CC1 [Compound 618, 5-(5-(Benzyloxy)pyridin-3-yl)-3-(7-(4-methylpiperazin-1-yl)-3H-imidazo[4,5-c]pyridin-2-yl)-1H-pyrazolo[4,3-b]pyridine] here?
A: 1.6 µM

Q: And the EC50 (SW480 colon cancer cells)?
A: 4.6 µM

Q: What about the EC50 [1] of the same compound?
A: 1.9 µM

Q: And the EC50 [2]?
A: 4.63 µM

Q: Which results are given for c1cc(-c2cncc3[nH]c(-c4n[nH]c5ccc(-c6cncc(OCCN7CCCC7)c6)nc45)nc23)co1 [Compound 646, 3-(7-(Furan-3-yl)-3H-imidazo[4,5-c]pyridin-2-yl)-5-(5-(2-(pyrrolidin-1-yl)ethoxy)pyridin-3-yl)-1H-pyrazolo[4,3-b]pyridine]?
A: EC50 (IL-6 in THP-1 cells): 0.435 µM; inhibition at 10 µM (SW480 colon cancer cells): 33.1%; EC50 (SW480 colon cancer cells): > 10 µM; EC50 [1]: 3.84 µM; EC50 [2]: 4.62 µM

Q: With COc1cncc(-c2ccc3[nH]nc(-c4nc5c(-c6ccoc6)cncc5[nH]4)c3n2)c1 [Compound 648, 3-(7-(Furan-3-yl)-3H-imidazo[4,5-c]pyridin-2-yl)-5-(5-methoxylpyridin-3-yl)-1H-pyrazolo[4,3-b]pyridine] as the compound, how does the EC50 (IL-6 in THP-1 cells) read?
A: 7.04 µM

Q: And the EC50 (SW480 colon cancer cells)?
A: 1.77 µM

Q: And the EC50 [1]?
A: 0.404 µM

Q: What about the EC50 [2] of the same compound?
A: 0.849 µM

Q: How did the EC50 (IL-6 in THP-1 cells) turn out when Cc1ccc(-c2cncc3[nH]c(-c4n[nH]c5ccc(-c6cncc(OC7CCCCC7)c6)nc45)nc23)s1 [Compound 691, 5-(5-(Cyclohexyloxy)pyridin-3-yl)-3-(7-(5-methylthiophen-2-yl)-3H-imidazo[4,5-c]pyridin-2-yl)-1H-pyrazolo[4,3-b]pyridine] was run?
A: 0.003 µM

Q: What about the EC50 (SW480 colon cancer cells) of the same compound?
A: 4.63 µM

Q: What about the EC50 [1] of the same compound?
A: 1.75 µM

Q: What about the EC50 [2] of the same compound?
A: 4.03 µM

Q: With Cc1ncc(-c2ccc3[nH]nc(-c4nc5c(-c6cc(F)cc(NCCN(C)C)c6)cncc5[nH]4)c3n2)n1C [Compound 737, N^1-(3-(2-(5-(1,2-Dimethyl-1H-imidazol-5-yl)-1H-pyrazolo[4,3-b]pyridin-3-yl)-3H-imidazo[4,5-c]pyridin-7-yl)-5-fluorophenyl)-N^2,N^2-dimethylethane-1,2-diamine] as the compound, how does the EC50 (IL-6 in THP-1 cells) read?
A: 1.17 µM

Q: What about the inhibition at 10 µM (SW480 colon cancer cells) of the same compound?
A: 46.5%

Q: And the EC50 (SW480 colon cancer cells)?
A: > 10 µM

Q: And the EC50 [1]?
A: 8.95 µM

Q: And the EC50 [2]?
A: 3.85 µM

Q: Which EC50 (IL-6 in THP-1 cells) does the source give for CN(C)CCNc1cc(F)cc(-c2cncc3[nH]c(-c4n[nH]c5ccc(-c6cncc(OCc7ccccc7)c6)nc45)nc23)c1 [Compound 746, N^1-(3-(2-(5-(5-(Benzyloxy)pyridin-3-yl)-1H-pyrazolo[4,3-b]pyridin-3-yl)-3H-imidazo[4,5-c]pyridin-7-yl)-5-fluorophenyl)-N^2,N^2-dimethylethane-1,2-diamine] here?
A: 1.6 µM

Q: What about the EC50 (SW480 colon cancer cells) of the same compound?
A: 3.3 µM

Q: And the EC50 [1]?
A: 2.93 µM

Q: And the EC50 [2]?
A: 2.72 µM

Q: Which EC50 (IL-6 in THP-1 cells) does the source give for CN(C)CCNc1cc(F)cc(-c2cncc3[nH]c(-c4n[nH]c5ccc(-c6cnccn6)nc45)nc23)c1 [Compound 748, N^1-(3-Fluoro-5-(2-(5-(pyrazin-2-yl)-1H-pyrazolo[4,3-b]pyridin-3-yl)-3H-imidazo[4,5-c]pyridin-7-yl)phenyl)-N^2,N^2-dimethylethane-1,2-diamine] here?
A: 4.23 µM

Q: What about the EC50 (SW480 colon cancer cells) of the same compound?
A: 3.74 µM

Q: And the EC50 [1]?
A: > 10 µM

Q: And the inhibition at 10 µM ([1]; LL29 cells treated with TGF-β1, 4 days, at 10 μM, read-out: percent inhibition in brackets (given for EC50 >10 μM))?
A: 41.3%

Q: What about the EC50 [2] of the same compound?
A: 3.95 µM
